Laboratory results published in patent US7214699B2, “Indazole derivatives as CRF antagonists” (Roche Palo Alto LLC, priority 2002, dated 2007).
Structures can show the parent of a compound that is named as a salt.

What was measured:
hCRF1 = target: T1, hCRF1 (Homo sapiens, UniProt P34998); assay: Intracellular cAMP stimulation assay (CRF1 functional assay); assay type: cell-based; conditions: inhibition of hCRF (30 nM)-stimulated cAMP accumulation in human Y-79 retinoblastoma cells, read-out: hCRF1 pIC50 (converted)
T1 construct: endogenous in cells; host or cells: Human Y-79 retinoblastoma cells
T1 sequence (P34998 24-415): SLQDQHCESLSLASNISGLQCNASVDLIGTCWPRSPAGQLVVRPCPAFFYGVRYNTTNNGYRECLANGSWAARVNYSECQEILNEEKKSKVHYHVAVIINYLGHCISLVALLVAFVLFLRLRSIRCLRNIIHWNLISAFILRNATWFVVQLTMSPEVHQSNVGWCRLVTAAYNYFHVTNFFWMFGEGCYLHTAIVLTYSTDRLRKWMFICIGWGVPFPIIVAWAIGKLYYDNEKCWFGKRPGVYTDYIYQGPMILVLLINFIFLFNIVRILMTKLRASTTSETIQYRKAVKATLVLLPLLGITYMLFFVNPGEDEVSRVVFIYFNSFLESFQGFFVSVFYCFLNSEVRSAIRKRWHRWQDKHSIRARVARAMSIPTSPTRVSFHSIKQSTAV
Experimental: Intracellular cAMP Stimulation Assay
Human Y-79 retinoblastoma cells are grown in RPMI 1640 medium with 15% FBS. Measures of cAMP accumulation are performed by using NEN Adenylyl Cyclase FlashPlate kit (SMP004). The cells are separated from culture medium, washed twice with PBS (150×g, 8 min), resuspended (2E+6 cells/ml) in Stimulation Buffer (provided in the kit), and then added to 96-well FlashPlates, (50,000 cells per well). Various concentrations of test compounds are incubated with the cells for 20 min prior to the addition of hCRF (30 nM). The total assay volume is 100 μl. The assay is terminated after 20 min after addition of the hCRF by addition of Detection Buffer and [^125I]cAMP. After 2 hr at room temperature the mixtures are aspirated and the bound radioactivity is measured with a Packard TopCount. The potency (IC50 values) of test compounds in inhibiting the hCRF-stimulated accumulation of cAMP is determined by nonlinear regression analyses with interactive curve-fitting procedures.
The compounds of the present invention were active in receptor binding and functional assays.

Compound	melting point	IC50 (hCRF1)
CCN(CCOC)c1c2cccc(-c3c(C)cc(C)cc3C)c2nn1C.Cl	142 to 146 °C	
CCCN(CCC)c1c2cccc(-c3ccc(OC)cc3C)c2nn1C.Cl	60 to 70 °C	
CCCN(Cc1c2cccc(-c3c(C)cc(C)cc3C)c2nn1C)CC1CC1.Cl	125.8 to 133.5 °C	
CCCN(CC1CC1)c1c2cccc(-c3ccc(Cl)cc3Cl)c2nn1C.Cl	137 to 139 °C	
CCCN(CCC)c1c2cccc(-c3ccc(OC)cc3OC)c2nn1C.Cl	62 to 64.3 °C	
CC/C=C(\CCC)c1c2cccc(-c3ccc(OC)nc3C)c2nn1C.Cl	84.7 to 89.4 °C	
CCC=C(CCC)c1c2cccc(-c3ccc(Cl)cc3Cl)c2nn1C (as salt: hydrochloride) [Ia, 7-(2,4-Dichloro-phenyl)-2-methyl-3-(1-propyl-but-1-enyl)-2H-indazole hydrochloride]	147 to 152 °C	
CCCN(CCC)c1c2cccc(-c3c(C)cc(C)cc3C)c2nn1C (as salt: hydrochloride) [Ic, [2-Methyl-7-(2,4,6-trimethyl-phenyl)-2H-indazol-3-yl]-dipropyl-amine]	154 to 158 °C	
CCCN(CCOC)c1c2cccc(-c3c(C)cc(C)cc3C)c2nn1C (as salt: hydrochloride) [Ie, (2-Methoxy-ethyl)-[2-methyl-7-(2,4,6-trimethyl-phenyl)-2H-indazol-3-yl]-propyl-amine]	86 to 121 °C	
COCCN(CCOC)c1c2cccc(-c3c(C)cc(C)cc3C)c2nn1C (as salt: hydrochloride) [If, Bis-(2-methoxy-ethyl)-[2-methyl-7-(2,4,6-trimethyl-phenyl)-2H-indazol-3-yl]-amine]	140 to 142 °C	
CCCN(CCC)c1c2cccc(-c3ccc(Cl)cc3Cl)c2nn1C (as salt: hydrochloride) [[7-(2,4-Dichloro-phenyl)-2-methyl-2H-indazol-3-yl]-dipropyl-amine]	153 to 157 °C	
CCC=C(CCC)c1c2cccc(-c3ccc(Cl)cc3Cl)c2nn1C [Ia, 7-(2,4-Dichloro-phenyl)-2-methyl-3-(1-propyl-but-1-enyl)-2H-indazole hydrochloride]		63.1 nM
Cn1nc2c(-c3ccc(Cl)cc3Cl)cccc2c1C(=O)N1CCOCC1 [Iae, [7-(2,4-Dichloro-phenyl)-2-methyl-2H-indazol-3-yl]-morpholin-4-yl-methanone]	197 to 200.8 °C	
Cn1nc2c(-c3ccc(Cl)cc3Cl)cccc2c1CN1CCOCC1 [Iag, 7-(2,4-Dichloro-phenyl)-2-methyl-3-morpholin-4-ylmethyl-2H-indazole]	152.3 to 154.8 °C	
CCC=C(CCC)c1c2cccc(-c3c(C)cc(C)cc3C)c2nn1C.Cl [Ib, 2-Methyl-3-(1-propyl-but-1-enyl)-7-(2,4,6-trimethyl-phenyl)-2H-indazole hydrochloride]	132 to 135 °C	50.1 nM
CCCN(CCC)c1c2cccc(-c3c(C)cc(C)cc3C)c2nn1C [Ic, [2-Methyl-7-(2,4,6-trimethyl-phenyl)-2H-indazol-3-yl]-dipropyl-amine]		79.4 nM
CCCN(CC1CC1)C(=O)c1c2cccc(-c3c(C)cc(C)cc3C)c2nn1C [Im, 2-Methyl-7-(2,4,6-trimethyl-phenyl)-2H-indazole-3-carboxylic acid cyclopropylmethyl-propyl-amide]	112.5 to 113.8 °C	
CCCN(Cc1cccs1)c1c2cccc(-c3c(C)cc(C)cc3C)c2nn1C [Io, [2-Methyl-7-(2,4,6-trimethyl-phenyl)-2H-indazol-3-yl]-propyl-thiophen-2-ylmethyl-amine trifluoro-acetic acid salt]		79.4 nM
CCCN(CC1CC1)c1c2cccc(-c3c(C)cc(C)cc3C)c2nn1C [Ip, Cyclopropylmethyl-[2-methyl-7-(2,4,6-trimethyl-phenyl)-2H-indazol-3-yl]-propyl-amine trifluoroacetic acid salt]		50.1 nM
